Assay results: patent US20220306603A1, “TARGETING DNA REPAIR IN TUMOR CELLS VIA INHIBITION OF ERCC1-XPF” (The Governors of the University of Alberta, priority 2019, published 2022)
In brackets after ≈: the same amount, converted by molar mass. Entries after “also recorded” stand apart in the source; their conditions may differ. Like-named read-outs stand apart in the source and are kept apart here. Each block holds one molecule with its values, some of them ahead of it.

Experiments:
[1] = Stability of the compound over time; format: physicochemical
ERCC1-XPF = target: T1, ERCC1-XPF (Homo sapiens, UniProt Q92889); assay: Microplate fluorescence incision assay of ERCC1-XPF endonuclease activity; format: biochemical; conditions: for inhibition of ERCC1-XPF endonuclease activity (in words): compounds 10 μM each
T1 construct: His6; made in house; host or cells: E. coli BL21 (DE3)
T1 sequence (Q92889 1-916): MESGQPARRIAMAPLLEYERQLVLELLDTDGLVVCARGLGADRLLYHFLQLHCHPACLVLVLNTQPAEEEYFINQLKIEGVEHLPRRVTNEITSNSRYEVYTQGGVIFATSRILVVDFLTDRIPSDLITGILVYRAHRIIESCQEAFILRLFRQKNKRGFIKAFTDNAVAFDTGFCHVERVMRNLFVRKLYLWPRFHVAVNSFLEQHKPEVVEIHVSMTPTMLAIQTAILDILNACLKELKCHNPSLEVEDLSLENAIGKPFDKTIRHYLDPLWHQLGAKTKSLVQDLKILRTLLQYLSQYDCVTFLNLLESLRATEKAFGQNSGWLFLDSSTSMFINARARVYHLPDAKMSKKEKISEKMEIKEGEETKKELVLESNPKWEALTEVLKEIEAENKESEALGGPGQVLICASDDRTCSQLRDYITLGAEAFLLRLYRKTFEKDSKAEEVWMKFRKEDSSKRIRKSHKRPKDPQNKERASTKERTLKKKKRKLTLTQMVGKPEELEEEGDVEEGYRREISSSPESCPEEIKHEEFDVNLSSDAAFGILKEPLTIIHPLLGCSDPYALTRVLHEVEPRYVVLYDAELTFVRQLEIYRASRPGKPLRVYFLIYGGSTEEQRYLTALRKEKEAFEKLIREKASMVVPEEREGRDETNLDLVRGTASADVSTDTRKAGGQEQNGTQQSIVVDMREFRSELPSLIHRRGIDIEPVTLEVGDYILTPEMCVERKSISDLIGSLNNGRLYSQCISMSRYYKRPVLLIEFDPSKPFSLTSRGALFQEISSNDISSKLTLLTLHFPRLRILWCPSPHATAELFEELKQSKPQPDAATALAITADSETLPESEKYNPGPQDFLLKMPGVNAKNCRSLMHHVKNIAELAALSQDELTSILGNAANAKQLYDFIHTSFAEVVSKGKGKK
Text: This assay has been previously described (29), and utilizes a stem-loop substrate (composed of a 10mer-duplex stem and a 20mer-oligodT single-strand loop), labelled on the 5′-terminus with 6-FAM and 3′ with the quencher dabcyl.
Human ERCC1-XPF wild-type protein was obtained as previously described (29). Basically, the recombinant protein was expressed from a bicistronic plasmid (provided by Dr. Richard Wood, University of Texas MD Anderson Cancer Center, Smithville, Tex.) in the E. coli BL21 (DE3) strain. Since both XPF and ERCC1 contained a polyhistidine (His-6) tag, the proteins extracted from E. coli were incubated with a ProBond Nickel-Chelating Resin (Thermo Fisher Scientific). Protein eluted from the Ni affinity column was subsequently loaded into a Hi-trap heparin column (GE Healthcare). Fractions recovered from the heparin column that contained ERCC1-XPF were dialyzed, concentrated and stored at −80° C. in 10 mM HEPES pH 7.4, 2.5 mM p-mercaptoethanol, 0.01% CHAPS, 0.25 mM EDTA, 50% glycerol and 25 mM NaCl.
A previously described protocol (2,29) was followed.

ERCC1-XPF complex = target: T2, ERCC1-XPF complex (Homo sapiens, UniProt Q92889); assay: Steady-state intrinsic tryptophan fluorescence quenching binding assay
T2 construct: His6; made in house; host or cells: E. coli BL21 (DE3)
T2 sequence (Q92889 1-916): T1 sequence (Q92889 1-916)
Description: Steady-state fluorescence spectra were measured at room temperature on a Perkin-Elmer LS-55 spectrofluorometer (Freemont, Calif.) with 5 nm spectral resolution for excitation and emission using 30-80 nM solution of purified recombinant ERCC1-XPF protein complex. […] In studying the effects of inhibitors on protein fluorescence intensities, additions to protein samples were made from inhibitors stock solutions, keeping the protein dilution below 3%.

HCT116 cells [2] = assay: Cellular repair of UV-induced cyclobutane pyrimidine dimers (immunofluorescence); format: cell-based, human; conditions: 8 J/m^2 UV-C, up to 24 h post-irradiation
Description: Protocol of Mirzayans et al. was followed with minor modifications (30). Approximately 1×10^5 HCT116 cells were seeded on each coverslip and allowed to attach overnight. Medium was then removed and cells were treated for one hour with the desired compound. The medium was removed, and cells were exposed to 8 J/m^2 UV-C radiation (G15T8 254 nm lamp, Ushio America Inc, Cypress, Calif.) followed by adding fresh medium containing the compound. Plates were incubated at 37° C. for different periods of time up to 24 hours and fixed in 50:50 methanol/1× phosphate-buffered saline (PBS) solution, followed by replacing the methanol/PBS solution with 100% methanol and incubation in −20° C. After 20 minutes, methanol was removed, and cells were treated with PBS for 5 minutes in room temperature. After fixing, cells were permeabilized in 0.5% Triton/PBS and washed with PBS, denatured in 2 N HCl, and neutralized by twice washing with 0.1 M borate buffer pH 8.5. Cells on cover slips were washed once with PBS followed by blocking with 5% non-fat dry milk/PBS for 30 minutes. Mouse anti-thymine dimer monoclonal antibody (Cat. No. MC-062, Kamiya Biomedical Company, Seattle, Wash.) was applied to the cover slips for one hour in the dark and at room temperature. Cells were then washed with PBS containing 0.1% Tween-20 and incubated with rabbit anti-mouse IgG-Alexafluor antibody (Invitrogen, Carlsbad, Calif.) followed by two washes with PBS/(0.1%)Tween-20. Cells on coverslips were then washed with PBS, rinsed with water, and mounted on slides using DAPI glycerol mounting solution. Slides were kept at 4° C. before fluorescent microscopic evaluation and measurement of fluorescence intensity with MetaXpress Version: 6.2.1.704 software (Molecular Devices, Sunnyvale, Calif.).
To test for inhibition of nucleotide excision repair, we monitored the cellular removal of UVC-induced cyclobutane pyrimidine dimers (CPDs) in HCT116 cells over a 24-hour period using an immunochemical assay.

[3] = ADME screening: cell permeability and efflux ratio; conditions: for Cell permeability (Mean recovery %) (in words): Table 8; for efflux ratio: not told
[4] = ADME screening: solubility; format: physicochemical; conditions: Table 8
[5] = Microsomal stability in vitro (human liver microsomes); conditions: for Microsomal stability in vitro CLint (in words): Table 8
[6] = Hepatocyte stability in vitro; format: in vitro ADME; conditions: Table 8
[7] = test system: five CYP450 tested enzymes; assay: ADME screening: CYP inhibition (five CYP450 enzymes); conditions: Table 8
[8] = test system: five CYP450 enzymes (CYP1A2, CYP2C9, CYP2C19, CYP2D6, CYP3A4-M); assay: as above; conditions: human
HCT116 cells [9] = assay: Clonogenic survival assay, UV treatment; format: cell-based, human; conditions: 254 nm UV 0-10 J/m^2; compound 0.5-4 μM
Description: UV treatment: HCT116 cells (100-800 cells depending on the UV dose) were plated in triplicate in 60-mm petri dishes. The cells were incubated overnight at 37° C. in a humidified atmosphere containing 5% CO2 to allow for cell attachment. […] Medium was removed again, and cells were exposed to increasing doses (0-10 J/m^2) of UV-C radiation and then incubated for a further 10 days in the presence of inhibitor at 37° C. in a 5% CO2 atmosphere to allow for colony formation. After this period plates were stained with crystal violet and colonies were counted using a Colcount instrument (Oxford Optronix, Abingdon UK). Finally, plating efficiency and surviving fraction were calculated.

HCT116 cells [10] = assay: Cytotoxicity profile: crystal violet viability assay (and colony forming assay); format: cell-based, human; conditions: 5 μM, 3 days exposure, crystal violet
Description: Crystal violet viability assays were carried out to assess the cellular toxicity of these compounds to HCT116 cells and to choose relatively non-cytotoxic concentrations to be further utilised in sensitizing cells to UV radiation or cyclophosphamide.
The beneficial effect is especially visible at a concentration of 5.0 μM. At higher concentrations, both compounds show an equal cytotoxic effect (FIG. 15).

cancer cells = conditions: cited from earlier work
serum proteins = assay: ADME screening: serum protein binding; format: in vitro ADME; conditions: Table 8
[11] = test system: interaction between ERCC1 and XPF; conditions: in vitro; cited from earlier work
HCT116 cells [12] = assay: Clonogenic survival assay, cyclophosphamide treatment; format: cell-based, human; conditions: cyclophosphamide 0-300 μM; compound 1-4 μM
Description: Plates were incubated for another 8 days at 37° C. in a 5% CO2 atmosphere for colony formation. After this period plates were stained with crystal violet, colonies were counted, and plating efficiency and surviving fraction were calculated.

stability over time (in words) [1]: instability over time
Structure (SMILES): COc1ccc2nc3cc(Cl)ccc3c(Nc3ccc(O)c(CN4CCN(Cc5cccc(C)c5)CC4)c3)c2c1 [Compound A2, 4-((6-Chloro-2-methoxyacridin-9-yl)amino)-2-((4-(3-methylbenzyl)piperazin-1-yl)methyl)phenol]

Cell permeability (Mean recovery %) (in words) [3]: Low (common)
Solubility (in words) [4]: Highly soluble
LogD (rating) (ADME screening: LogD; Table 8): Good
logD (ADME screening: LogD; pH 7.4): 2.31
IC50 (ERCC1-XPF; Table 7, at least three experiments of Vo versus concentration, read-out: IC50): 0.321 ± 0.022 µM
Microsomal stability in vitro CLint (in words) [5]: Moderate
Kd (ERCC1-XPF complex; Table 7, read-out: Kd protein): 0.15 ± 0.01 µM
Structure (SMILES): COc1ccc2nc3cc(Cl)ccc3c(Nc3cc(CN4CCCC4)c(O)c(CN4CCCC4)c3)c2n1 [Compound D4, pyronaridine, reference compound]
inhibition of ERCC1-XPF endonuclease activity (in words) (ERCC1-XPF): potent inhibitor; also recorded: strong inhibitory effect

inhibition of ERCC1-XPF endonuclease activity (in words) (ERCC1-XPF): complete loss of inhibition
Structure (SMILES): CN1CCN(Cc2cc(N)ccc2O)CC1 [Gen B4]

inhibition of ERCC1-XPF endonuclease activity (in words) (ERCC1-XPF): marked capacity to inhibit
Structure (SMILES): CN1CCN(Cc2cc(Nc3c4ccc(Cl)cc4nc4ccc(O)cc34)ccc2O)CC1 [Gen B5]

More lines, now with the values behind:

Structure (SMILES): COc1ccc2nc3cc(Cl)ccc3c(Nc3ccc(O)c(CN4CCN(C5CCCCC5)CC4)c3)c2c1 [Compound A3, 4-((6-Chloro-2-methoxyacridin-9-yl)amino)-2-((4-cyclohexylpiperazin-1-yl)methyl)phenol]
IC50 (ERCC1-XPF; Table 6, at least three experiments of Vo versus concentration, 30 minutes incubation, 5% DMSO, read-out: IC50 ± SD): 0.38 ± 0.1 µM
inhibition of ERCC1-XPF endonuclease activity (in words) (ERCC1-XPF): marked capacity to inhibit; also recorded: potent inhibitors
Kd (ERCC1-XPF complex; Table 6, read-out: Kd ± SD): 0.145 ± 0.005 µM

Structure (SMILES): COc1ccc2nc3cc(Cl)ccc3c(Nc3ccc(O)c(CN4CCN(c5ccc(Cl)c(Cl)c5)CC4)c3)c2c1 [Compound A5, 4-((6-Chloro-2-methoxyacridin-9-yl)amino)-2-((4-(3,4-dichlorophenyl)piperazin-1-yl)methyl)phenol]
inhibition of cellular removal of CPDs / thymidine dimers (in words) (HCT116 cells [2]): failed to inhibit the cellular removal of CPDs
inhibition of ERCC1-XPF endonuclease activity (in words) (ERCC1-XPF): very limited inhibition
quenching of protein fluorescence at 330 nm (ERCC1-XPF complex; 2 μM compound, excitation 295 nm): 3±1%

Structure (SMILES): COc1ccc2nc3cc(Cl)ccc3c(Nc3ccc(O)c(CN4CCN(C)CC4)c3)c2c1 [Compound F06, 4-((6-Chloro-2-methoxyacridin-9-yl)amino)-2-((4-methylpiperazin-1-yl)methyl)phenol, reference compound]
Hepatocyte stability in vitro CLint (in words) [6]: (medium clearance)
CLint scaled ([6]; hepatocytes): < 17.8 mL/min/kg
CVP inhibition (5 enzyme) (rating) [7]: Moderate
IC50 [8]: ≥ 1 µM
Cell permeability (Mean recovery %) (in words) [3]: Low (common)
efflux ratio [3]: > 2
efflux ratio ([3]; efflux ratio): 11.2
Solubility (in words) [4]: (partially soluble)
solubility ([4]; <1.56 means below lower limit of quantilation): 8.13 µM (≈ 3.76 µg/mL)
LogD (rating) (ADME screening: LogD; Table 8): Good
LogD (remark in the LogD row) (ADME screening: LogD; Table 8): (partially soluble)
logD (ADME screening: LogD; Table 8): 3.86
log D (ADME screening: LogD; pH 7.4): 3.86
sensitisation to UV radiation, clonogenic survival (in words) (HCT116 cells [9]): modest sensitisation capacity
cells survived (HCT116 cells [10]): about 35%
IC50 (ERCC1-XPF): 1.86 µM
IC50 (ERCC1-XPF; Table 7, at least three experiments of Vo versus concentration): 1.86 ± 0.25 µM
inhibition of ERCC1-XPF endonuclease activity (in words) (ERCC1-XPF): marked capacity to inhibit
IC50 (ERCC1-XPF; read-out: IC50 of ERCC1-XPF endonuclease activity, full-length ERCC1-XPF, 30 minutes incubation, 5% DMSO): 1.86 ± 0.25 µM
IC50 (ERCC1-XPF; read-out: IC50 ± SD, Table 6, at least three experiments of Vo versus concentration, 30 minutes incubation, 5% DMSO): 1.86 ± 0.25 µM
Microsomal stability in vitro CLint (in words) [5]: high
CLint scaled ([5]; human, liver microsomes): 53.7 mL/min/kg
sensitization of cancer cells to MMC and cisplatin (in words) (cancer cells): sensitized cancer cells to MMC and cisplatin
Kd (ERCC1-XPF complex; Table 6, read-out: Kd ± SD): 0.14 ± 0.005 µM
Kd (ERCC1-XPF complex; Table 7, read-out: Kd protein): 0.14 ± 0.005 µM
Serum protein binding (% bound) (serum proteins): (99.9) % bound
Serum protein binding (in words) (serum proteins): Strong binding
effect on the interaction between ERCC1 and XPF (in words) [11]: repressed the interaction between ERCC1 and XPF in vitro

Structure (SMILES): COc1ccc2nc3cc(Cl)ccc3c(Nc3ccc(O)c(CN4CCN(CCNc5ccccc5)CC4)c3)c2c1 [Gen C-5, 4-((6-Chloro-2-methoxyacridin-9-yl)amino)-2-((4-(2-(phenylamino)ethyl)piperazin-1-yl)methyl)-phenol]
sensitisation to cyclophosphamide, clonogenic survival (in words) (HCT116 cells [12]): no significant sensitisation effect
